Values quoted from earlier work in PMC2643498 (The Journal of Biological Chemistry, 2009).

Legend:
[1] = system: AtCCD1; details: 100 μM
[2] = system: AtNCED3; details: 100 μM
[3] = target: recombinant NCED; details: read-out: Ki (NCED)

Ki [3]: 18.5 µM
Substance: abamineSG
inhibition of AtCCD1 [1]: ≤ 20%
inhibition of AtNCED3 [2]: 78%
